Laboratory results as given in patent US11780845B2 (Relay Therapeutics, Inc., priority 2019, dated 2023).

Columns and labels:
SNU16 cells = assay: SNU16 Cancer Cell Line Proliferation Assay; format: cell-based; details: Homo sapiens; SNU-16 cells
In short: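 Proliferation read-out: CellTiter Glo chemiluminescence after 96 h compound exposure. Test compounds, serially diluted 3-fold over 11 points from a 10 mM DMSO stock, were added to SNU16 cells plated 24 h earlier at 37 degrees.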

FGFR2 = FGFR2 (Homo sapiens (Human), UniProt P21802); assay: FGFR2 Biochemical Caliper Assay
Method: Compounds of the present invention were also tested in a FGFR2 Biochemical Caliper Assay. Compounds were prepared in 10 mM DMSO solution and serially diluted into 11 concentrations by 3-fold dilution. […] 5 uL of ATP solution (100 uM) was added to start the reaction and the plate was incubated for 90 minutes, then 70 uL of stopping buffer (0.5M EDTA) was added to terminate the reaction. Each well was analyzed using EZ reader.

Sequence of FGFR2 (P21802 22-821): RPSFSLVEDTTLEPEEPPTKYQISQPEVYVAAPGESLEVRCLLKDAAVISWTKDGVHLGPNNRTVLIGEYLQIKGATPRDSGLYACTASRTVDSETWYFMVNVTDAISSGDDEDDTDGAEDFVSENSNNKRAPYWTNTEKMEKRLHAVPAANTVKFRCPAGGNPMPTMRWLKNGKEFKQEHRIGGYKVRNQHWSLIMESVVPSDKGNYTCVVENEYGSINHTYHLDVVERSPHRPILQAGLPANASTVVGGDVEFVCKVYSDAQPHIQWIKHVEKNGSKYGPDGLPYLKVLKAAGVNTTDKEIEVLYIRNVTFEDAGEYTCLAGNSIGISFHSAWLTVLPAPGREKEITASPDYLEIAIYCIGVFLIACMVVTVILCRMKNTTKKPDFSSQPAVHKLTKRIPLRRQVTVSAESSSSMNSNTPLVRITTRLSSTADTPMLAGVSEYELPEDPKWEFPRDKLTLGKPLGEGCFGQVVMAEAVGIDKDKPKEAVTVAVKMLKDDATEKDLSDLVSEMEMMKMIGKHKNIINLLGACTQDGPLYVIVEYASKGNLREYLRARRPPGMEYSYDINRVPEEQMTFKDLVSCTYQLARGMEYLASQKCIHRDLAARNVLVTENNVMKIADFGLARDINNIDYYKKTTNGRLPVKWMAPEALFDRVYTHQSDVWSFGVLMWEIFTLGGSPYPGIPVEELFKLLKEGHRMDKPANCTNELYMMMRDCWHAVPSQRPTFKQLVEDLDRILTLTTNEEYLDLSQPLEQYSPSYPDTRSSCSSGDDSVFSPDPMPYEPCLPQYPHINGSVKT

Row | IC50 (SNU16 cells) | IC50 (FGFR2) | SMILES
1 | ≤ 100 nM | < 100 nM | C=C(C)C(=O)Nc1ccc(-c2c(-c3ccc(Oc4nccc(C)n4)cc3)c3c(N)ncnc3n2C)cc1 [Example 382]
2 | 250 to 1000 nM | 1000 to 100000 nM | C=C(C)C(=O)Nc1ccc(-c2c(-c3ccc(Oc4nnc(C)o4)cc3)c3c(N)ncnc3n2C)cc1 [Example 393]
3 | ≤ 100 nM | < 100 nM | C=C(C)C(=O)Nc1ccc(-c2c(-c3ccc(Oc4cccc(C)n4)c(F)c3)c3c(N)ncnc3n2C)cc1 [Example 395]
4 | 100 to 250 nM | < 100 nM | C=C(C)C(=O)Nc1ccc(-c2c(-c3cc(F)c(Oc4ncc(C)cn4)c(F)c3)c3c(N)ncnc3n2C)cc1 [Example 423]
5 | ≤ 100 nM | < 100 nM | C=C(C)C(=O)Nc1ccc(-c2c(-c3ccc(Oc4ncc(F)cn4)c(C)c3)c3c(N)ncnc3n2C)c(F)c1 [Example 424]
6 | ≤ 100 nM | < 100 nM | C=C(C)C(=O)Nc1ccc(-c2c(-c3ccc(Oc4nccc(C)n4)cc3F)c3c(N)ncnc3n2C)cc1 [Example 425]
7 | ≤ 100 nM | < 100 nM | C=C(C)C(=O)Nc1ccc(-c2c(-c3ccc(Oc4nccc(C)n4)cc3)c3c(N)ncnc3n2C)c(F)c1 [Example 426]
8 | ≤ 100 nM | < 100 nM | C=C(C)C(=O)Nc1ccc(-c2c(-c3ccc(Oc4ncc(F)cn4)cc3)c3c(N)ncnc3n2C)c(F)c1 [Example 427]
9 | ≤ 100 nM | < 100 nM | C=C(C)C(=O)Nc1ccc(-c2c(-c3ccc(Oc4ncc(F)cn4)cc3)c3c(N)ncnc3n2C)cc1 [Example 428]
10 | 100 to 250 nM | 100 to 250 nM | C=C(C)C(=O)Nc1ccc(-c2c(-c3ccc(Oc4ncc(F)cn4)c(C#N)c3)c3c(N)ncnc3n2C)cc1 [Example 429]
11 | 250 to 1000 nM | 250 to 1000 nM | C=C(C)C(=O)Nc1ccc(-c2c(-c3ccc(Oc4cccc(C)n4)nc3)c3c(N)ncnc3n2C)cc1 [Example 441]
12 | ≤ 100 nM | < 100 nM | C=C(C)C(=O)Nc1ccc(-c2c(-c3ccc(Oc4cccc(C)n4)cc3F)c3c(N)ncnc3n2C)cc1 [Example 442]
13 | ≤ 100 nM | < 100 nM | C=C(C)C(=O)Nc1ccc(-c2c(-c3ccc(Oc4nccc(C)n4)c(OC)c3)c3c(N)ncnc3n2C)c(F)c1 [Example 444]
14 | ≤ 100 nM | < 100 nM | C=C(C)C(=O)Nc1ccc(-c2c(-c3ccc(Oc4cccc(C)n4)c(C#N)c3)c3c(N)ncnc3n2C)cc1 [Example 445]
15 | ≤ 100 nM | 100 to 250 nM | C=C(C)C(=O)Nc1ccc(-c2c(-c3ccc(Oc4nccc(C)n4)c(OC)c3)c3c(N)ncnc3n2C)cc1 [Example 446]
16 | ≤ 100 nM | < 100 nM | C=C(C)C(=O)Nc1ccc(-c2c(-c3cc(F)c(Oc4nccc(C)n4)c(F)c3)c3c(N)ncnc3n2C)cc1 [Example 447]
17 | 100 to 250 nM | 250 to 1000 nM | C=C(C)C(=O)Nc1ccc(-c2c(-c3ccc(Oc4ncc(F)cn4)c(OC)c3)c3c(N)ncnc3n2C)cc1 [Example 448]
18 | 100 to 250 nM | 250 to 1000 nM | C=C(C)C(=O)Nc1ccc(-c2c(-c3ccc(Oc4ncc(OC)cn4)c(F)c3)c3c(N)ncnc3n2C)cc1 [Example 449]
19 | ≤ 100 nM | < 100 nM | C=C(C)C(=O)Nc1ccc(-c2c(-c3ccc(Oc4cccc(C)n4)cn3)c3c(N)ncnc3n2C)cc1 [Example 460]
20 | 100 to 250 nM | 100 to 250 nM | C=C(C)C(=O)Nc1ccc(-c2c(-c3ccc(C(=O)c4nccc(C)n4)cc3C)c3c(N)ncnc3n2C)cc1 [Example 471]

Continued, compound first:

Row | SMILES | IC50 (SNU16 cells) | IC50 (FGFR2)
21 | C=C(C)C(=O)Nc1ccc(-c2c(-c3ccc(Oc4cccc(N)n4)cc3)c3c(N)ncnc3n2C)cc1 [Example 379] | ≤ 100 nM | < 100 nM
22 | C=C(C)C(=O)Nc1ccc(-c2c(-c3ccc(Oc4cccc(C)n4)cc3)c3c(N)ncnc3n2C)cc1CN(C)C [Example 380] | 250 to 1000 nM | 100 to 250 nM
23 | C=C(C)C(=O)Nc1ccc(-c2c(-c3ccc(C(=O)NCC4CCC4)cc3)c3c(N)ncnc3n2C)cc1 [Example 381] | ≤ 100 nM | < 100 nM
24 | C=C(C)C(=O)Nc1ccc(-c2c(-c3ccc(C(=O)NCc4ccn(C)n4)cc3)c3c(N)ncnc3n2C)cc1 [Example 383] | 250 to 1000 nM | 1000 to 100000 nM
25 | C=C(C)C(=O)Nc1ccc(-c2c(-c3ccc(Oc4cccc(C)n4)cc3)c3c(N)ncnc3n2C)c(C)c1 [Example 384] | ≤ 100 nM | < 100 nM
26 | C=C(C)C(=O)Nc1ccc(-c2c(-c3ccc(Oc4cccc(C)n4)cc3)c3c(N)ncnc3n2C)cc1C [Example 385] | ≤ 100 nM | 100 to 250 nM
27 | C=C(C)C(=O)Nc1ccc(-c2c(-c3ccc(C(=O)NC4CCOC4)c(OC)c3)c3c(N)ncnc3n2C)cc1 (stereo not shown) [Example 386] | 100 to 250 nM | < 100 nM
28 | C=C(C)C(=O)Nc1ccc(-c2c(C3=CCC(C(=O)N4CC5CCC(C5)C4)CC3)c3c(N)ncnc3n2C)cc1 (stereo not shown) [Example 387] | ≤ 100 nM | 100 to 250 nM
29 | C=C(C)C(=O)Nc1ccc(-c2c(-c3ccc(C(=O)N4CCC[C@@H](OC)C4)cc3)c3c(N)ncnc3n2C)cc1 [Example 388] | 100 to 250 nM | 250 to 1000 nM
30 | C=C(C)C(=O)Nc1ccc(-c2c(-c3ccc(C(=O)NCC4CCC4)c(OC)c3)c3c(N)ncnc3n2C)cc1 [Example 391] | ≤ 100 nM | < 100 nM
31 | C=C(C)C(=O)Nc1ccc(-c2c(-c3ccc(C(=O)NCC4CCC4)nc3)c3c(N)ncnc3n2C)cc1 [Example 399] | ≤ 100 nM | 100 to 250 nM
32 | C=C(COC)C(=O)Nc1ccc(-c2c(-c3ccc(Oc4cccc(C)n4)cc3)c3c(N)ncnc3n2C)cc1 [Example 401] | ≤ 100 nM | < 100 nM
33 | C=C(C)C(=O)Nc1ccc(-c2c(-c3ccc(C(=O)N4CCCC4)cc3)c3c(N)ncnc3n2C)c(C)c1 [Example 406] | ≤ 100 nM | < 100 nM
34 | C=C(C)C(=O)Nc1ccc(-c2c(-c3ccc(C(=O)NCC(C)(C)F)cc3)c3c(N)ncnc3n2C)cc1 [Example 408] | ≤ 100 nM | < 100 nM
35 | C=C(C)C(=O)Nc1ccc(-c2c(-c3ccc(C(=O)NCC(C)(C)COC)cc3)c3c(N)ncnc3n2C)cc1 [Example 409] | ≤ 100 nM | < 100 nM
36 | C=C(C)C(=O)Nc1ccc(-c2c(-c3ccc(C(=O)N(C)CC(C)C)cc3)c3c(N)ncnc3n2C)cc1 [Example 410] | ≤ 100 nM | < 100 nM
37 | C=C(C)C(=O)Nc1ccc(-c2c(-c3ccc(C(=O)N(C)CC4(F)COC4)cc3)c3c(N)ncnc3n2C)cc1 [Example 411] | 250 to 1000 nM | 250 to 1000 nM
38 | C=C(C)C(=O)Nc1ccc(-c2c(-c3ccc(C(=O)NCC4CCC4)c(F)c3)c3c(N)ncnc3n2C)cc1 [Example 413] | ≤ 100 nM | < 100 nM

Row | SMILES | IC50 (SNU16 cells) | IC50 (FGFR2)
39 | C=C(C)C(=O)Nc1ccc(-c2c(-c3ccc(Oc4cccc(C)n4)cc3)c3c(N)ncnc3n2C2COC2)cc1 [Example 415] | ≤ 100 nM | < 100 nM
40 | C=C(C)C(=O)Nc1ccc(-c2c(-c3ccc(C(=O)NCC(C)(C)OC)c(F)c3)c3c(N)ncnc3n2C)cc1 [Example 416] | ≤ 100 nM | < 100 nM
41 | C=C(C)C(=O)Nc1ccc(-c2c(-c3ccc(Oc4cccc(COC)n4)cc3)c3c(N)ncnc3n2C)cc1 [Example 417] | ≤ 100 nM | < 100 nM
42 | C=C(C)C(=O)Nc1ccc(-c2c(-c3ccc(Oc4cccc(CO)n4)cc3)c3c(N)ncnc3n2C)cc1 [Example 418] | ≤ 100 nM | < 100 nM
43 | C=C(C)C(=O)Nc1ccc(-c2c(C3=CC[C@@H](C(=O)N4CC5CCC(C5)C4)CC3)c3c(N)ncnc3n2C)cc1 [Example 419] | ≤ 100 nM | < 100 nM
44 | C=C(C)C(=O)Nc1ccc(-c2c(-c3ccc(C(=O)N4CCCC4)cc3)c3c(N)ncnc3n2C)c(OC)c1 [Example 433] | ≤ 100 nM | < 100 nM
45 | C=C(C)C(=O)Nc1ccc(-c2c(-c3ccc(C(=O)N4CCCC4)cc3)c3c(N)ncnc3n2C)c(Cl)c1 [Example 434] | ≤ 100 nM | < 100 nM
46 | C=C(C)C(=O)Nc1ccc(-c2c(-c3ccc(C(=O)N4CCCC4)cc3)c3c(N)ncnc3n2C)c(C#N)c1 [Example 435] | 100 to 250 nM | < 100 nM
47 | C=C(C)C(=O)Nc1ccc(-c2c(-c3ccc(C(=O)N4CCCC4)cc3)c3c(N)ncnc3n2C)c(C(F)F)c1 [Example 436] | 100 to 250 nM | < 100 nM
48 | C=C(C)C(=O)Nc1ccc(-c2c(-c3ccc(C(=O)N4CCC[C@H]4C#N)c(F)c3)c3c(N)ncnc3n2C)cc1 [Example 437] | ≤ 100 nM | < 100 nM
49 | C=C(C)C(=O)Nc1ccc(-c2c(C3=CCC(Oc4ncc(F)cn4)CC3)c3c(N)ncnc3n2C)cc1 (stereo not shown) [Example 458] | ≤ 100 nM | 100 to 250 nM
50 | C=C(C)C(=O)Nc1ccc(-c2c(-c3ccc(C(=O)N4CCC[C@H]4C#N)cc3)c3c(N)ncnc3n2C)c(F)c1 [Example 459] | ≤ 100 nM | < 100 nM
51 | C=C(C)C(=O)Nc1ccc(-c2c(-c3ccc(C(=O)N4CCC5CC54)cc3)c3c(N)ncnc3n2C)c(F)c1 (stereo not shown) [Example 461] | ≤ 100 nM | < 100 nM
52 | C=C(C)C(=O)Nc1ccc(-c2c(-c3ccc(C(=O)N4CCCC[C@H]4C)cc3)c3c(N)ncnc3n2C)c(F)c1 [Example 462] | ≤ 100 nM | < 100 nM
53 | C=C(C)C(=O)Nc1ccc(-c2c(-c3ccc(C(=O)N4CC5CC4C5)cc3)c3c(N)ncnc3n2C)c(F)c1 [Example 463] | ≤ 100 nM | < 100 nM
54 | C=C(C)C(=O)Nc1ccc(-c2c(-c3ccc(C(=O)N(C)CC4(C#N)CC4)cc3)c3c(N)ncnc3n2C)c(F)c1 [Example 465] | ≤ 100 nM | < 100 nM
55 | C=C(C)C(=O)Nc1ccc(-c2c(-c3ccc(C(=O)N(C)Cc4nc(C)no4)cc3)c3c(N)ncnc3n2C)c(F)c1 [Example 468] | ≤ 100 nM | < 100 nM
56 | C=C(C)C(=O)Nc1ccc(-c2c(-c3ccc(Oc4ncc(F)cn4)cn3)c3c(N)ncnc3n2C)cc1 [Example 474] | ≤ 100 nM | < 100 nM
